# Measured values taken from US12233161B1, “Lipids and lipid nanoparticle formulations” (LONGUIDE BIOPHARMA CORPORATION, priority 2024, dated 2025).
# Tested on: mice
# Assay: In vivo delivery of FLuc-mRNA lipid nanoparticles in mice, in vivo imaging (IVIS)
# Settings: Fluc-mRNA LNP
# Experimental: After the preparation was completed, the preparation was injected intramuscularly (mice rectus femoris muscle of the thigh), intravenously (mice tail vein), or intraperitoneal injection or subcutaneous injection (subcutaneous on the back), with approximately 75 μL per mouse, for a total of 3 mice. After a certain time of injection, in vivo imaging (PerkinElmer, IVIS Lumina III) was performed. 10-15 minutes before imaging, 200 μL of 15 mg/mL D-Luciferin working solution was injected intraperitoneally, and the imaging analysis was performed using an in vivo imager.
# [1] = route IH, organ: body, DSPE-PEG5000:DSPC:Chol:compound 1.40:11.15:38.95:48.50, N/P 30
# [2] = route IH, organ: spleen, DSPE-PEG5000:DSPC:Chol:compound 1.40:11.15:38.95:48.50, N/P 30
# [3] = route IM, 1 h (live), DSPE-PEG5000:DSPC:Chol:compound 1.40:11.15:38.95:48.50, N/P 30
# [4] = route IM, 1 h (lung), DSPE-PEG5000:DSPC:Chol:compound 1.40:11.15:38.95:48.50, N/P 30
# [5] = route IM, 1 h (muscle), DSPE-PEG5000:DSPC:Chol:compound 1.40:11.15:38.95:48.50, N/P 30
# [6] = route IM, 1 h (spleen), DSPE-PEG5000:DSPC:Chol:compound 1.40:11.15:38.95:48.50, N/P 30
# [7] = route IM, 2 h (live), DSPE-PEG5000:DSPC:Chol:compound 1.40:11.15:38.95:48.50, N/P 30
# [8] = route IM, 2 h (lung), DSPE-PEG5000:DSPC:Chol:compound 1.40:11.15:38.95:48.50, N/P 30
# [9] = route IM, 2 h (muscle), DSPE-PEG5000:DSPC:Chol:compound 1.40:11.15:38.95:48.50, N/P 30
# [10] = route IM, 2 h (spleen), DSPE-PEG5000:DSPC:Chol:compound 1.40:11.15:38.95:48.50, N/P 30
# [11] = route IM, 3 h (live), DSPE-PEG5000:DSPC:Chol:compound 1.40:11.15:38.95:48.50, N/P 30
# [12] = route IM, 3 h (lung), DSPE-PEG5000:DSPC:Chol:compound 1.40:11.15:38.95:48.50, N/P 30
# [13] = route IM, 3 h (muscle), DSPE-PEG5000:DSPC:Chol:compound 1.40:11.15:38.95:48.50, N/P 30
# [14] = route IM, 3 h (spleen), DSPE-PEG5000:DSPC:Chol:compound 1.40:11.15:38.95:48.50, N/P 30
# [15] = route IM, 6 h (live), DSPE-PEG5000:DSPC:Chol:compound 1.40:11.15:38.95:48.50, N/P 30
# [16] = route IM, 6 h (lung), DSPE-PEG5000:DSPC:Chol:compound 1.40:11.15:38.95:48.50, N/P 30
# [17] = route IM, 6 h (muscle), DSPE-PEG5000:DSPC:Chol:compound 1.40:11.15:38.95:48.50, N/P 30
# [18] = route IM, 6 h (spleen), DSPE-PEG5000:DSPC:Chol:compound 1.40:11.15:38.95:48.50, N/P 30
# [19] = route IM, organ not given, formulation, molar ratio and N/P as in the table
# [20] = route IV, organ: body, formulation, molar ratio and N/P as in the table
# [21] = route IV, organ: liver, formulation, molar ratio and N/P as in the table
# [22] = route IV, organ: lung, formulation, molar ratio and N/P as in the table
# [23] = route IV, organ: spleen, formulation, molar ratio and N/P as in the table
# [24] = route IH, organ: liver, DSPE-PEG5000:DSPC:Chol:compound 1.40:11.15:38.95:48.50, N/P 30
# [25] = route IH, organ: lung, DSPE-PEG5000:DSPC:Chol:compound 1.40:11.15:38.95:48.50, N/P 30
# [26] = route IM, organ: liver, formulation, molar ratio and N/P as in the table
# [27] = route IM, organ: lung, formulation, molar ratio and N/P as in the table
# [28] = route IM, organ: spleen, formulation, molar ratio and N/P as in the table
compound,measurement,setting,value
CCCCCCC(CCCCCC)C(=O)NCCOC(=O)C(O)CN(CCCN(C)CCCN(CC(O)C(=O)OCCNC(=O)C(CCCCCC)CCCCCC)CC(O)C(=O)OCCNC(=O)C(CCCCCC)CCCCCC)CC(O)C(=O)OCCNC(=O)C(CCCCCC)CCCCCC (stereo not drawn) [Compound L0361],IVIS,[1],1.54E+08
same,IVIS,[2],3.59E+04
same,% of organ targeting,[3],63.15%
same,IVIS,[3],6.62E+05
same,% of organ targeting,[4],4.17%
same,IVIS,[4],4.37E+04
same,IVIS,[5],1.07E+08
same,% of organ targeting,[6],31.03%
same,IVIS,[6],3.25E+05
same,% of organ targeting,[7],58.75%
same,IVIS,[7],7.54E+06
same,% of organ targeting,[8],1.27%
same,IVIS,[8],1.63E+05
same,IVIS,[9],1.87E+08
same,% of organ targeting,[10],37.18%
same,IVIS,[10],4.77E+06
same,% of organ targeting,[11],42.49%
same,IVIS,[11],4.54E+06
same,% of organ targeting,[12],4.98%
same,IVIS,[12],5.32E+05
same,IVIS,[13],2.97E+08
same,% of organ targeting,[14],50.95%
same,IVIS,[14],5.45E+06
same,% of organ targeting,[15],52.52%
same,IVIS,[15],1.17E+07
same,% of organ targeting,[16],2.72%
same,IVIS,[16],6.06E+05
same,IVIS,[17],2.62E+08
same,% of organ targeting,[18],42.27%
same,IVIS,[18],9.42E+06
same,IVIS,[19],1.14E+08
same,IVIS,[20],4.99E+07
same,IVIS,[21],1.24E+07
same,IVIS,[22],1.36E+07
same,IVIS,[23],5.05E+07
CCCCCCC(CCCCCC)C(=O)NCCOC(=O)C(O)CN(CCN(C)CCN(CC(O)C(=O)OCCNC(=O)C(CCCCCC)CCCCCC)CC(O)C(=O)OCCNC(=O)C(CCCCCC)CCCCCC)CC(O)C(=O)OCCNC(=O)C(CCCCCC)CCCCCC (stereo not drawn) [Compound L0362],IVIS,[1],1.38E+08
same,% of organ targeting,[24],62.89%
same,IVIS,[24],1.80E+07
same,% of organ targeting,[25],1.15%
same,IVIS,[25],3.28E+05
same,% of organ targeting,[2],33.19%
same,IVIS,[2],9.50E+06
same,% of organ targeting,[26],44.30%
same,IVIS,[26],2.62E+07
same,% of organ targeting,[27],0.77%
same,IVIS,[27],4.55E+05
same,IVIS,"route IM, organ: muscle, formulation, molar ratio and N/P as in the table",3.43E+08
same,% of organ targeting,[28],35.43%
same,IVIS,[28],2.09E+07
CCCCCCC(CCCCCC)C(=O)NCCOC(=O)C(O)CN(CCCN(CC(O)C(=O)OCCNC(=O)C(CCCCCC)CCCCCC)CC(O)C(=O)OCCNC(=O)C(CCCCCC)CCCCCC)CCCN(CC(O)C(=O)OCCNC(=O)C(CCCCCC)CCCCCC)CC(O)C(=O)OCCNC(=O)C(CCCCCC)CCCCCC (stereo not drawn) [Compound L0363],IVIS,[19],2.08E+07
same,IVIS,[20],6.16E+09
same,IVIS,[21],6.56E+08
same,IVIS,[22],4.56E+06
same,IVIS,[23],9.96E+06
CCCCCCCCCCCCNC(=O)C(O)CN(CCCN(C)CCN(C)CCCN(CC(O)C(=O)NCCCCCCCCCCCC)CC(O)C(=O)NCCCCCCCCCCCC)CC(O)C(=O)NCCCCCCCCCCCC (stereo not drawn) [Compound L0365],IVIS,[19],1.24E+06
CCCCCCCCCCCCNC(=O)C(O)CN(CCCN(C)CCN(C)CCCN(CC(O)C(=O)NCCCCCCCCCCCC)CC(O)C(=O)NCCCCCCCCCCCC)CC(O)C(=O)NCCCCCCCCCCCC (stereo not drawn) [Compound L0366],IVIS,[19],4.56E+05
CCCCCCC(CCCCC)C(=O)OCCCCNC(=O)C(O)CN(CCCN(C)CCCCN(CCC(O)C(=O)NCCOC(=O)C(CCCCCC)CCCCCC)C(O)C(=O)NCCCCOC(=O)C(CCCCCC)CCCCCC)CC(O)C(=O)NCCCCOC(=O)C(CCCCC)CCCCCC (stereo not drawn) [Compound L0367],IVIS,[1],1.65E+07
same,IVIS,[2],8.20E+03
same,IVIS,[19],3.40E+07
same,IVIS,[20],4.05E+07
same,% of organ targeting,[21],3.91%
same,IVIS,[21],3.83E+06
same,% of organ targeting,[22],45.55%
same,IVIS,[22],4.47E+07
same,% of organ targeting,[23],37.59%
same,IVIS,[23],3.69E+07
CCCCCCC(CCCCCC)C(=O)OCCCCNC(=O)C(O)CN(CCN(C)CCN(CC(O)C(=O)NCCCCOC(=O)C(CCCCCC)CCCCCC)CC(O)C(=O)NCCCCOC(=O)C(CCCCCC)CCCCCC)CC(O)C(=O)NCCCCOC(=O)C(CCCCCC)CCCCCC (stereo not drawn) [Compound L0368],% of organ targeting,[3],39.42%
same,IVIS,[3],3.95E+05
same,% of organ targeting,[4],5.12%
same,IVIS,[4],5.13E+04
same,IVIS,[5],8.19E+07
same,% of organ targeting,[6],42.92%
same,IVIS,[6],4.30E+05
same,% of organ targeting,[7],70.91%
same,IVIS,[7],6.97E+06
same,% of organ targeting,[8],1.59%
same,IVIS,[8],1.57E+05
same,IVIS,[9],2.25E+08
same,% of organ targeting,[10],26.79%
same,IVIS,[10],2.64E+06
same,% of organ targeting,[11],51.88%
same,IVIS,[11],5.57E+06
same,% of organ targeting,[12],1.77%
same,IVIS,[12],1.89E+05
same,IVIS,[13],5.02E+08
same,% of organ targeting,[14],27.68%
same,IVIS,[14],2.97E+06
same,% of organ targeting,[15],52.87%
same,IVIS,[15],1.53E+07
same,% of organ targeting,[16],1.75%
same,IVIS,[16],5.04E+05
same,IVIS,[17],1.32E+08
same,% of organ targeting,[18],42.92%
same,IVIS,[18],1.24E+07
same,IVIS,[19],9.91E+07
same,IVIS,[20],6.34E+07
same,% of organ targeting,[21],18.05%
same,IVIS,[21],1.00E+07
same,% of organ targeting,[22],7.99%
same,IVIS,[22],4.43E+06
same,% of organ targeting,[23],73.95%
same,IVIS,[23],4.10E+07
CCCCCCC(CCCCCC)C(=O)OCCCCNC(=O)C(O)CN(CCCN(CC(O)C(=O)NCCCCOC(=O)C(CCCCCC)CCCCCC)CC(O)C(=O)NCCCCOC(=O)C(CCCCCC)CCCCCC)CCCN(CC(O)C(=O)NCCCCOC(=O)C(CCCCCC)CCCCCC)CC(O)C(=O)NCCCCOC(=O)C(CCCCCC)CCCCCC (stereo not drawn) [Compound L0369],IVIS,[19],6.07E+07
same,IVIS,[20],1.22E+10
same,% of organ targeting,[21],98.57%
same,IVIS,[21],4.47E+09
same,% of organ targeting,[22],0.75%
same,IVIS,[22],3.40E+07
same,% of organ targeting,[23],0.68%
same,IVIS,[23],3.07E+07
CCCCCCCCC(CCCCCC)C(=O)OCCCCCCNC(=O)C(O)CN(CCCN(C)CCCN(CC(O)C(=O)NCCCCCCOC(=O)C(CCCCCC)CCCCCCCC)CC(O)C(=O)NCCCCCCOC(=O)C(CCCCCC)CCCCCCCC)CC(O)C(=O)NCCCCCCOC(=O)C(CCCCCC)CCCCCCCC (stereo not drawn) [Compound L0370],IVIS,[19],1.68E+07
same,IVIS,[20],1.43E+07
same,% of organ targeting,[21],4.65%
same,IVIS,[21],8.65E+05
same,% of organ targeting,[22],17.97%
same,IVIS,[22],3.34E+06
same,% of organ targeting,[23],77.39%
same,IVIS,[23],1.44E+07
CCCCCCCCC(CCCCCC)C(=O)OCCCCCCNC(=O)C(O)CN(CCN(C)CCN(CC(O)C(=O)NCCCCCCOC(=O)C(CCCCCC)CCCCCCCC)CC(O)C(=O)NCCCCCCOC(=O)C(CCCCCC)CCCCCCCC)CC(O)C(=O)NCCCCCCOC(=O)C(CCCCCC)CCCCCCCC (stereo not drawn) [Compound L0371],IVIS,[19],3.02E+07
same,IVIS,[20],1.98E+07
same,% of organ targeting,[21],8.16%
same,IVIS,[21],2.58E+06
same,% of organ targeting,[22],8.29%
same,IVIS,[22],2.62E+06
same,% of organ targeting,[23],83.54%
same,IVIS,[23],2.64E+07
